Data published in ChEMBL document CHEMBL4622956, “Amide derivatives of Gallic acid: Design, synthesis and evaluation of inhibitory activities against in vitro α-synuclein aggregation” (Bioorg Med Chem, 2020).

Biological target: Alpha-synuclein (Homo sapiens, UniProt P37840)
Assay: Inhibition of alpha-synuclein (unknown origin) aggregation incubated for 3 days by thioflavin T based fluorescence assay

For `O=C(O)c1cc(O)c(O)c(O)c1` [GALLIC ACID], the IC50 was 4.43 µM.
